Columns and labels:
VCaP cells = test: Proliferation assay (Cell Titer-Glo), VCaP cells; type: cell-based; details: 3 days
Experimental: (§1) VCaP, LNCaP, 22Rv.1, DU145 and PC3 cancer cell lines were obtained from ATCC. VCaP were cultured in DMEM media supplemented with 8% FBS, LNCaP, 22Rv.1 and DU145 were cultured in RPMI1640 media supplemented with 10% FBS, and PC3 were cultured in F12K media supplemented with 10% FBS.
(§2) Cells were plated in a 96-well format and were allowed to adhere 24 h before treatment. Drugs were titrated 1:3 from 1 μM to 0.1 nM with 9 doses in triplicate. Cell proliferation was measured on the day of treatment (Day 0) and on Day 3 using Cell Titer-Glo reagent (Promega) according to the manufacturer's instructions. Cell growth normalized to the DMSO vehicle control and to Day 0 was fitted by nonlinear regression using GraphPad Prism 7.03 (GraphPad Software, Inc.).

LNCaP cells = test: Proliferation assay (Cell Titer-Glo), LNCaP cells; type: cell-based, human; details: 3 days of treatment, at 1 uM, related to Day 0 and DMSO
Experimental: as §1, §2

22Rv.1 cells = test: Proliferation assay (Cell Titer-Glo), 22Rv.1 cells; type: cell-based; details: Homo sapiens, 22Rv1, 72 h, 3 days
Experimental: as §1, §2

DU145 cells = test: Proliferation assay (Cell Titer-Glo), DU145 cells; type: cell-based; details: 3 days
Experimental: as §1, §2

PC3 cells = test: Proliferation assay (Cell Titer-Glo), PC3 cells; type: cell-based; details: 3 days
Experimental: as §1, §2

[1] = tested on: Neuroendocrine prostate cancer models; test: Proliferation assay, all Neuroendocrine prostate cancer models tested (summary); type: cell-based; details: DU145 and PC3 models, summary statement
Experimental: as §1, §2

KLK3 [2] = test: Gene expression analysis (qPCR), KLK3 in VCaP cells; type: cell-based; details: 48 h
Experimental: as §1
(§3) Cells were plated in a 6-well format and were allowed to adhere 24 h before treatment. Cells were treated for 48 h before collecting them. RNA was purified from cells using the RNeasy kit (Qiagen) according to the manufacturer's instructions. Quantitative RTPCR was performed using the TaqMan assay (Thermo Fisher Scientific) on the ABI QuantStudio 7 Flex Real-Time PCR System.

TMPRSS2 [3] = test: Gene expression analysis (qPCR), TMPRSS2 in VCaP cells; type: cell-based; details: 48 h
Experimental: as §1, §3

MYC [4] = test: Gene expression analysis (qPCR), MYC in VCaP cells; type: cell-based; details: 48 h
Experimental: as §1, §3

HEXIM1 [5] = test: Gene expression analysis (qPCR), HEXIM1 in VCaP cells; type: cell-based; details: 48 h
Experimental: as §1, §3

KLK3 [6] = test: Gene expression analysis (qPCR), KLK3 in LNCaP cells; type: cell-based, human; details: 48 h
Experimental: as §1, §3

MYC [7] = test: Gene expression analysis (qPCR), MYC in LNCaP cells; type: cell-based, human; details: 48 h
Experimental: as §1, §3

HEXIM1 [8] = test: Gene expression analysis (qPCR), HEXIM1 in LNCaP cells; type: cell-based, human; details: 48 h
Experimental: as §1, §3

KLK3 [9] = test: Gene expression analysis (qPCR), KLK3 in 22Rv.1 cells; type: cell-based; details: 48 h
Experimental: as §1, §3

TMPRSS2 [10] = test: Gene expression analysis (qPCR), TMPRSS2 in 22Rv.1 cells; type: cell-based; details: 48 h
Experimental: as §1, §3

MYC [11] = test: Gene expression analysis (qPCR), MYC in 22Rv.1 cells; type: cell-based; details: 48 h
Experimental: as §1, §3

HEXIM1 [12] = test: Gene expression analysis (qPCR), HEXIM1 in 22Rv.1 cells; type: cell-based; details: 48 h
Experimental: as §1, §3

- IC50 (22Rv.1 cells): 1.7 nM
- IC50 (PC3 cells; Homo sapiens, PC-3, 72 h): 4.1 nM
SMILES: Cc1nnn(C)c1-c1cnc2c3ccc(C(C)(C)O)cc3n([C@H](c3ccccc3)C3CCOCC3)c2c1 [Compound A, 2-[3-(1,4-dimethyl-1H-1,2,3-triazol-5-yl)-5-[(S)-(oxan-4-yl)(phenyl)methyl]-5H-pyrido[3,2-b]indol-7-yl]propan-2-ol]
- growth arrest of VCaP proliferation (VCaP cells; at 0.1 uM, related to Day 0 and DMSO): 100%
- cytotoxic effect on VCaP cells (VCaP cells; at the highest concentrations): cytotoxic effects
- growth arrest of LNCaP cells (LNCaP cells): 100%
- reduction of DU145 proliferation (DU145 cells): 61.9%
- reduction of PC3 proliferation (PC3 cells): 67%
- reduction of cell proliferation in all Neuroendocrine prostate cancer models tested [1]: ≥ 61.9%
- downregulation of KLK3 compared to DMSO (KLK3 [2]; 4 nM): 96.9%
- downregulation of KLK3 compared to DMSO (KLK3 [2]; 40 nM): 99.4%
- downregulation of TMPRSS2 (TMPRSS2 [3]; 4 nM): 32.8%
- downregulation of TMPRSS2 (TMPRSS2 [3]; 40 nM): 51.9%
- reduction in MYC expression (MYC [4]; 4 nM): 91.4%
- MYC downregulation (MYC [4]; 40 nM): 95.7%
- HEXIM1 upregulated compared to DMSO (HEXIM1 [5]; 4 nM): 968.0%
- HEXIM1 upregulated compared to DMSO (HEXIM1 [5]; 40 nM): 1257.5%
- downregulation of KLK3 (KLK3 [6]; 4 nM): 58.8%
- downregulation of KLK3 (KLK3 [6]; 40 nM): 92.0%
- downregulation of MYC (MYC [7]; 4 nM): 84.1%
- downregulation of MYC (MYC [7]; 40 nM): 93.6%
- upregulation of HEXIM1 (HEXIM1 [8]; 4 nM): 446.8%
- upregulation of HEXIM1 (HEXIM1 [8]; 40 nM): 533.3%
- downregulation of KLK3 (KLK3 [9]; 4 nM): 99.9%
- downregulation of KLK3 (KLK3 [9]; 40 nM): 99.8%
- reduction of TMPRSS2 compared to DMSO (TMPRSS2 [10]; 4 nM): 97.0%
- reduction of TMPRSS2 compared to DMSO (TMPRSS2 [10]; 40 nM): 97.8%
- downregulation of MYC (MYC [11]; 4 nM): 98.5%
- downregulation of MYC (MYC [11]; 40 nM): 99.3%
- induction of HEXIM1 (HEXIM1 [12]; 4 nM): 31%
- upregulation of HEXIM1 (HEXIM1 [12]; 40 nM): 91.5%

From patent US12016847B2, “Methods of treating prostate cancer” (Bristol-Myers Squibb Company, priority 2021, dated 2024)
